Patent US11178868B2, “Alkynyl-substituted 3-phenylpyrrolidine-2,4-diones and use thereof as herbicides” (Bayer CropScience Aktiengesellschaft, priority 2015, dated 2021)

Assays:
Assay type in all cases: in vivo
Amaranthus retroflexus = experiment: Post-emergence herbicidal effect; settings: 80 g a.i./ha, assessed visually after about 3 weeks
Description: (§1) Seeds of monocotyledonous and dicotyledonous weed and crop plants are laid out in sandy loam in wood-fibre pots, covered with soil and cultivated in a greenhouse under good growth conditions. 2 to 3 weeks after sowing, the test plants are treated at the one-leaf stage. The compounds according to the invention, formulated in the form of wettable powders (WP) or as emulsion concentrates (EC), are then sprayed as aqueous suspension or emulsion at a water application rate of 600 to 800 I/ha (converted) with the addition of 0.2% of wetting agent onto the green parts of the plants. After the test plants have been left to stand in the greenhouse under optimal growth conditions for about 3 weeks, the action of the preparations is assessed visually in comparison to untreated controls (herbicidal action in percent (%): 100% activity=the plants have died, 0% activity=like control plants).

Lolium multiflorum [1] = experiment: Post-emergence herbicidal effect; settings: assessed visually after about 3 weeks
Description: as §1

Echinochloa crus-galli [2] = experiment: Post-emergence herbicidal effect; settings: assessed visually after about 3 weeks
Description: as §1

Setaria viridis [3] = experiment: Post-emergence herbicidal effect; settings: assessed visually after about 3 weeks
Description: as §1

Avena fatua [4] = experiment: Post-emergence herbicidal effect; settings: assessed visually after about 3 weeks
Description: as §1

Lolium multiflorum [5] = experiment: Pre-emergence herbicidal effect; settings: scored visually after 3 weeks
Excerpt: (§2) Seeds of monocotyledonous and dicotyledonous weed plants and crop plants are laid out in wood-fibre pots in sandy loam and covered with soil. The compounds according to the invention formulated in the form of wettable powders (WP) or as emulsion concentrates (EC) are then applied as aqueous suspension or emulsion at a water application rate of 600 to 800 I/ha (converted) with the addition of 0.2% wetting agent to the surface of the covering soil. After the treatment, the pots are placed in a greenhouse and kept under good growth conditions for the trial plants. The damage to the test plants is scored visually after a test period of 3 weeks by comparison with untreated controls (herbicidal activity in percent (%): 100% activity=the plants have died, 0% activity=like control plants).

Alopecurus myosuroides [6] = experiment: Pre-emergence herbicidal effect; settings: scored visually after 3 weeks
Excerpt: as §2

Echinochloa crus-galli [7] = experiment: Pre-emergence herbicidal effect; settings: scored visually after 3 weeks
Excerpt: as §2

Setaria viridis [8] = experiment: Pre-emergence herbicidal effect; settings: scored visually after 3 weeks
Excerpt: as §2

Avena fatua [9] = experiment: Pre-emergence herbicidal effect; settings: scored visually after 3 weeks
Excerpt: as §2

Alopecurus myosuroides [10] = experiment: Post-emergence herbicidal effect; settings: assessed visually after about 3 weeks
Description: as §1

CC#Cc1cc(C)c(C2=C(O)C3(CCCC(OCCC)C3)NC2=O)c(C)c1 (stereo not shown) [Example D3, 3-[2,6-Dimethyl-4-(prop-1-yn-1-yl)phenyl]-4-hydroxy-7-propoxy-1-azaspiro[4.5]dec-3-en-2-one]
100%: Herbicidal effect against [%] LOLMU (Lolium multiflorum [1]; 80 g a.i./ha) | Herbicidal effect against [%] ECHCG (Echinochloa crus-galli [2]; 20 g a.i./ha) | Herbicidal effect against [%] ECHCG (Echinochloa crus-galli [2]; 80 g a.i./ha) | Herbicidal effect against [%] SETVI (Setaria viridis [3]; 80 g a.i./ha) | Herbicidal effect against [%] LOLMU (Lolium multiflorum [5]; 80 g a.i./ha) | Herbicidal effect against [%] LOLMU (Lolium multiflorum [5]; 320 g a.i./ha) | Herbicidal effect against [%] ALOMY (Alopecurus myosuroides [6]; 80 g a.i./ha) | Herbicidal effect against [%] ALOMY (Alopecurus myosuroides [6]; 320 g a.i./ha) | Herbicidal effect against [%] ECHCG (Echinochloa crus-galli [7]; 80 g a.i./ha) | Herbicidal effect against [%] ECHCG (Echinochloa crus-galli [7]; 320 g a.i./ha) | Herbicidal effect against [%] SETVI (Setaria viridis [8]; 80 g a.i./ha) | Herbicidal effect against [%] SETVI (Setaria viridis [8]; 320 g a.i./ha) | Herbicidal effect against [%] AVEFA (Avena fatua [9]; 320 g a.i./ha)
80%: Herbicidal effect against [%] LOLMU (Lolium multiflorum [1]; 20 g a.i./ha) | Herbicidal effect against [%] SETVI (Setaria viridis [3]; 20 g a.i./ha) | Herbicidal effect against [%] AVEFA (Avena fatua [9]; 80 g a.i./ha)
90%: Herbicidal effect against [%] AMARE (Amaranthus retroflexus) | Herbicidal effect against [%] AVEFA (Avena fatua [4]; 80 g a.i./ha)

CC#Cc1cc(CC)c(C2=C(O)C3(CCCC(OCC)C3)NC2=O)c(CC)c1 (stereo not shown) [Example D1]
100%: Herbicidal effect against [%] ALOMY (Alopecurus myosuroides [10]; 80 g a.i./ha) | Herbicidal effect against [%] ECHCG (Echinochloa crus-galli [2]; 20 g a.i./ha) | Herbicidal effect against [%] ECHCG (Echinochloa crus-galli [2]; 80 g a.i./ha) | Herbicidal effect against [%] SETVI (Setaria viridis [3]; 80 g a.i./ha) | Herbicidal effect against [%] LOLMU (Lolium multiflorum [5]; 80 g a.i./ha) | Herbicidal effect against [%] LOLMU (Lolium multiflorum [5]; 320 g a.i./ha) | Herbicidal effect against [%] ALOMY (Alopecurus myosuroides [6]; 80 g a.i./ha) | Herbicidal effect against [%] ALOMY (Alopecurus myosuroides [6]; 320 g a.i./ha) | Herbicidal effect against [%] ECHCG (Echinochloa crus-galli [7]; 80 g a.i./ha) | Herbicidal effect against [%] ECHCG (Echinochloa crus-galli [7]; 320 g a.i./ha) | Herbicidal effect against [%] SETVI (Setaria viridis [8]; 80 g a.i./ha) | Herbicidal effect against [%] SETVI (Setaria viridis [8]; 320 g a.i./ha) | Herbicidal effect against [%] AVEFA (Avena fatua [9]; 320 g a.i./ha)
80%: Herbicidal effect against [%] ALOMY (Alopecurus myosuroides [10]; 20 g a.i./ha) | Herbicidal effect against [%] AVEFA (Avena fatua [9]; 80 g a.i./ha)
90%: Herbicidal effect against [%] LOLMU (Lolium multiflorum [1]; 80 g a.i./ha) | Herbicidal effect against [%] SETVI (Setaria viridis [3]; 20 g a.i./ha)

CC#Cc1cc(CC)c(C2=C(OC(=O)OCC)C3(CCCC(OCC)C3)NC2=O)c(CC)c1 (single isomer, unassigned) [Example P2]
100%: Herbicidal effect against [%] LOLMU (Lolium multiflorum [5]; 80 g a.i./ha) | Herbicidal effect against [%] LOLMU (Lolium multiflorum [5]; 320 g a.i./ha) | Herbicidal effect against [%] ALOMY (Alopecurus myosuroides [6]; 80 g a.i./ha) | Herbicidal effect against [%] ALOMY (Alopecurus myosuroides [6]; 320 g a.i./ha) | Herbicidal effect against [%] ECHCG (Echinochloa crus-galli [7]; 80 g a.i./ha) | Herbicidal effect against [%] ECHCG (Echinochloa crus-galli [7]; 320 g a.i./ha) | Herbicidal effect against [%] SETVI (Setaria viridis [8]; 80 g a.i./ha) | Herbicidal effect against [%] SETVI (Setaria viridis [8]; 320 g a.i./ha) | Herbicidal effect against [%] AVEFA (Avena fatua [9]; 80 g a.i./ha) | Herbicidal effect against [%] AVEFA (Avena fatua [9]; 320 g a.i./ha)
80%: Herbicidal effect against [%] ECHCG (Echinochloa crus-galli [2]; 80 g a.i./ha)

CC#Cc1cc(CC)c(C2=C(O)C3(CCCC(OCCOC)C3)NC2=O)c(CC)c1 (stereo not shown) [Example D5]
100%: Herbicidal effect against [%] LOLMU (Lolium multiflorum [1]; 20 g a.i./ha) | Herbicidal effect against [%] LOLMU (Lolium multiflorum [1]; 80 g a.i./ha) | Herbicidal effect against [%] ALOMY (Alopecurus myosuroides [10]; 20 g a.i./ha) | Herbicidal effect against [%] ALOMY (Alopecurus myosuroides [10]; 80 g a.i./ha) | Herbicidal effect against [%] ECHCG (Echinochloa crus-galli [2]; 20 g a.i./ha) | Herbicidal effect against [%] ECHCG (Echinochloa crus-galli [2]; 80 g a.i./ha) | Herbicidal effect against [%] SETVI (Setaria viridis [3]; 20 g a.i./ha) | Herbicidal effect against [%] SETVI (Setaria viridis [3]; 80 g a.i./ha) | Herbicidal effect against [%] AVEFA (Avena fatua [4]; 20 g a.i./ha) | Herbicidal effect against [%] AVEFA (Avena fatua [4]; 80 g a.i./ha) | Herbicidal effect against [%] LOLMU (Lolium multiflorum [5]; 80 g a.i./ha) | Herbicidal effect against [%] LOLMU (Lolium multiflorum [5]; 320 g a.i./ha) | Herbicidal effect against [%] ALOMY (Alopecurus myosuroides [6]; 80 g a.i./ha) | Herbicidal effect against [%] ALOMY (Alopecurus myosuroides [6]; 320 g a.i./ha) | Herbicidal effect against [%] ECHCG (Echinochloa crus-galli [7]; 80 g a.i./ha) | Herbicidal effect against [%] ECHCG (Echinochloa crus-galli [7]; 320 g a.i./ha) | Herbicidal effect against [%] SETVI (Setaria viridis [8]; 80 g a.i./ha) | Herbicidal effect against [%] SETVI (Setaria viridis [8]; 320 g a.i./ha) | Herbicidal effect against [%] AVEFA (Avena fatua [9]; 80 g a.i./ha) | Herbicidal effect against [%] AVEFA (Avena fatua [9]; 320 g a.i./ha)

CC#Cc1cc(CC)c(C2=C(OC(=O)C(C)C)C3(CCCC(OCCOC)C3)NC2=O)c(CC)c1 (stereo not shown) [Example P12]
100%: Herbicidal effect against [%] LOLMU (Lolium multiflorum [1]; 20 g a.i./ha) | Herbicidal effect against [%] LOLMU (Lolium multiflorum [1]; 80 g a.i./ha) | Herbicidal effect against [%] ALOMY (Alopecurus myosuroides [10]; 20 g a.i./ha) | Herbicidal effect against [%] ALOMY (Alopecurus myosuroides [10]; 80 g a.i./ha) | Herbicidal effect against [%] ECHCG (Echinochloa crus-galli [2]; 20 g a.i./ha) | Herbicidal effect against [%] ECHCG (Echinochloa crus-galli [2]; 80 g a.i./ha) | Herbicidal effect against [%] SETVI (Setaria viridis [3]; 20 g a.i./ha) | Herbicidal effect against [%] SETVI (Setaria viridis [3]; 80 g a.i./ha) | Herbicidal effect against [%] AVEFA (Avena fatua [4]; 20 g a.i./ha) | Herbicidal effect against [%] AVEFA (Avena fatua [4]; 80 g a.i./ha) | Herbicidal effect against [%] LOLMU (Lolium multiflorum [5]; 80 g a.i./ha) | Herbicidal effect against [%] LOLMU (Lolium multiflorum [5]; 320 g a.i./ha) | Herbicidal effect against [%] ALOMY (Alopecurus myosuroides [6]; 80 g a.i./ha) | Herbicidal effect against [%] ALOMY (Alopecurus myosuroides [6]; 320 g a.i./ha) | Herbicidal effect against [%] ECHCG (Echinochloa crus-galli [7]; 80 g a.i./ha) | Herbicidal effect against [%] ECHCG (Echinochloa crus-galli [7]; 320 g a.i./ha) | Herbicidal effect against [%] SETVI (Setaria viridis [8]; 80 g a.i./ha) | Herbicidal effect against [%] SETVI (Setaria viridis [8]; 320 g a.i./ha) | Herbicidal effect against [%] AVEFA (Avena fatua [9]; 80 g a.i./ha) | Herbicidal effect against [%] AVEFA (Avena fatua [9]; 320 g a.i./ha)

CC#Cc1cc(C)c(C2=C(OC(=O)OC(C)C)C3(CCCC(OCCOC)C3)NC2=O)c(C)c1 (stereo not shown) [Example P14]
100%: Herbicidal effect against [%] LOLMU (Lolium multiflorum [1]; 20 g a.i./ha) | Herbicidal effect against [%] LOLMU (Lolium multiflorum [1]; 80 g a.i./ha) | Herbicidal effect against [%] ALOMY (Alopecurus myosuroides [10]; 20 g a.i./ha) | Herbicidal effect against [%] ALOMY (Alopecurus myosuroides [10]; 80 g a.i./ha) | Herbicidal effect against [%] ECHCG (Echinochloa crus-galli [2]; 20 g a.i./ha) | Herbicidal effect against [%] ECHCG (Echinochloa crus-galli [2]; 80 g a.i./ha) | Herbicidal effect against [%] SETVI (Setaria viridis [3]; 80 g a.i./ha) | Herbicidal effect against [%] LOLMU (Lolium multiflorum [5]; 80 g a.i./ha) | Herbicidal effect against [%] LOLMU (Lolium multiflorum [5]; 320 g a.i./ha) | Herbicidal effect against [%] ALOMY (Alopecurus myosuroides [6]; 80 g a.i./ha) | Herbicidal effect against [%] ALOMY (Alopecurus myosuroides [6]; 320 g a.i./ha) | Herbicidal effect against [%] ECHCG (Echinochloa crus-galli [7]; 80 g a.i./ha) | Herbicidal effect against [%] ECHCG (Echinochloa crus-galli [7]; 320 g a.i./ha) | Herbicidal effect against [%] SETVI (Setaria viridis [8]; 80 g a.i./ha) | Herbicidal effect against [%] SETVI (Setaria viridis [8]; 320 g a.i./ha) | Herbicidal effect against [%] AVEFA (Avena fatua [9]; 80 g a.i./ha) | Herbicidal effect against [%] AVEFA (Avena fatua [9]; 320 g a.i./ha)
90%: Herbicidal effect against [%] SETVI (Setaria viridis [3]; 20 g a.i./ha) | Herbicidal effect against [%] AVEFA (Avena fatua [4]; 20 g a.i./ha) | Herbicidal effect against [%] AVEFA (Avena fatua [4]; 80 g a.i./ha)
